Converted amounts (≈) assume the structure as drawn. Read-outs that look alike come from different tables or passages of the source.
How the values were obtained:
Assay type in all cases: cell-based
[1] = tested on: Shigella flexneri Komagome; test: Minimum Inhibitory Concentration, Shigella flexneri Komagome; conditions: III: Shigella flexneri Komagome
Klebsiella neumoniae 806 = test: Minimum Inhibitory Concentration, Klebsiella neumoniae 806; conditions: Klebsiella, 806, read-out: Minimum Inhibitory Concentration
[2] = tested on: Klebsiella neumoniae 846 (resistant to CER); test: Minimum Inhibitory Concentration, Klebsiella neumoniae 846 (resistant to CER); conditions: read-out: Minimum Inhibitory Concentration
[3] = tested on: Staphylococcus aureus (resistant to CP and PC); test: Minimum Inhibitory Concentration, Staphylococcus aureus (resistant to CP and PC); conditions: IB: Staphylococcus aureus (resistant to CP and PC)
[4] = tested on: Escherichia coli 609 (resistant to CER); test: Minimum Inhibitory Concentration, Escherichia coli 609 (resistant to CER); conditions: read-out: Minimum Inhibitory Concentration
[5] = tested on: Salmonella enteritidis Gartner; test: Minimum Inhibitory Concentration, Salmonella enteritidis Gartner; conditions: Salmonella enterica; VI: Salmonella enteritidis Gartner
[6] = tested on: Staphylococcus aureus 209 P; test: Minimum Inhibitory Concentration, Staphylococcus aureus 209 P; conditions: IA: Staphylococcus aureus 209 P
Escherichia coli NIHJ = test: Minimum Inhibitory Concentration, Escherichia coli NIHJ; conditions: IIA: Escherichia coli NIHJ
Proteus vulgaris = test: Minimum Inhibitory Concentration, Proteus vulgaris; conditions: V: Proteus vulgaris
[7] = IIB: Escherichia coli 609 (resistant to CER)

Row | SMILES | MIC [1] | MIC (Klebsiella neumoniae 806) | MIC [2] | MIC [3] | MIC [4, 7] | MIC [5] | MIC [6] | MIC (Escherichia coli NIHJ) | MIC (Proteus vulgaris) | MIC ([4]; Escherichia coli)
1 | CO[C@@]1(NC(=O)CSCN=[N+]=[N-])C(=O)N2C(C(=O)O)=C(COC(C)=O)CS[C@@H]21 [N3 CH2 S / OCOCH3, 3-acetoxymethyl-7β-azidomethylthioacetamido-7α-methoxy-3-cephem-4-carboxylic acid] | 6.2 µg/mL (≈ 14.4 µM) | 6.2 µg/mL (≈ 14.4 µM) | > 200 µg/mL |  |  |  |  |  |  | 
2 | CO[C@@]1(NC(=O)CSCC#N)C(=O)N2C(C(=O)O)=C(COC(N)=O)CS[C@@H]21 [NCCH2 S / OCONH2, 3-carbamoyloxymethyl-7β-cyanomethylthioacetamido-7α-methoxy-3-cephem-4-carboxylic acid] | 3.1 µg/mL (≈ 7.44 µM) | 3.1 µg/mL (≈ 7.44 µM) |  | 3.1 µg/mL (≈ 7.44 µM) | 1.5 µg/mL (≈ 3.6 µM) | 1.5 µg/mL (≈ 3.6 µM) |  |  |  | 
3 | CO[C@@]1(NC(=O)CSC(C)C#N)C(=O)N2C(C(=O)O)=C(CSc3nnnn3C)CS[C@@H]21 (stereo partly drawn) [drawing 8 / drawing 6, 7β-(1-cyanoethyl)-acetamido-7α-methoxy-3-(1-methyl-1H-tetrazol-5-yl)thiomethyl-3-cephem-4-carboxylic acid] | 1.5 µg/mL (≈ 3.09 µM) | 1.5 µg/mL (≈ 3.09 µM) | 400 µg/mL (≈ 824 µM) | 0.8 µg/mL (≈ 1.65 µM) | 3.1 µg/mL (≈ 6.38 µM) | 0.4 µg/mL (≈ 0.824 µM) | 0.4 µg/mL (≈ 0.824 µM) | 1.5 µg/mL (≈ 3.09 µM) | 0.8 µg/mL (≈ 1.65 µM) | 
4 | CO[C@@]1(NC(=O)CSCN=[N+]=[N-])C(=O)N2C(C(=O)O)=C(CSc3nnnn3C)CS[C@@H]21 [N3 CH2 S / drawing 10, 7β-azidomethylthioacetamido-7α-methoxy-3-(1-methyl-1H-tetrazol-5-yl)thiomethyl-3-cephem-4-carboxylic acid] | 1.5 µg/mL (≈ 3.08 µM) |  | > 200 µg/mL | 0.4 µg/mL (≈ 0.82 µM) |  | 0.8 µg/mL (≈ 1.64 µM) | 0.4 µg/mL (≈ 0.82 µM) |  |  | 
5 | CO[C@@]1(NC(=O)CSCN=[N+]=[N-])C(=O)N2C(C(=O)O)=C(COC(N)=O)CS[C@@H]21 [N3 CH2 S / OCONH2, 7β-azidomethylthioacetamido-3-carbamoyloxymethyl-7α-methoxy-3-cephem-4-carboxylic acid] | 3.1 µg/mL (≈ 7.17 µM) |  | > 400 µg/mL |  |  |  | 0.2 µg/mL (≈ 0.462 µM) |  |  | 
6 | CO[C@@]1(NC(=O)CSCCO)C(=O)N2C(C(=O)O)=C(CSc3nnnn3C)CS[C@@H]21 [HOCH2 CH2 S / drawing 6, 7β-(2-hydroxyethylthio)acetamido-7α-methoxy-3-(1-methyl-1H-tetrazol-5-yl)thiomethyl-3-cephem-4-carboxylic acid] | 1.5 µg/mL (≈ 3.15 µM) |  | 200 µg/mL (≈ 420 µM) |  |  | 0.8 µg/mL (≈ 1.68 µM) | 0.8 µg/mL (≈ 1.68 µM) |  | 3.1 µg/mL (≈ 6.5 µM) | 
7 | CO[C@@]1(NC(=O)CSCC#N)C(=O)N2C(C(=O)O)=C(COC(C)=O)CS[C@@H]21 [NCCH2 S / OCOCH3, 3-acetoxymethyl-7β-cyanomethylthioacetamido-7α-methoxy-3-cephem-4-carboxylic acid] | 3.1 µg/mL (≈ 7.46 µM) |  |  |  |  |  |  |  |  | 
8 | CO[C@@]1(NC(=O)CSCC#N)C(=O)N2C(C(=O)O)=C(CSc3nnnn3C)CS[C@@H]21 [NCCH2 S / drawing 6, 7β-cyanomethylthioacetamido-7α-methoxy-3-(1-methyl-1H-tetrazol-5-yl)thiomethyl-3-cephem-4-carboxylic acid] | 0.8 µg/mL (≈ 1.7 µM) | 0.8 µg/mL (≈ 1.7 µM) |  |  |  | 0.2 µg/mL (≈ 0.424 µM) | 0.2 µg/mL (≈ 0.424 µM) |  | 1.5 µg/mL (≈ 3.18 µM) | 
9 | CO[C@@]1(NC(=O)C[n+]2cc([O-])on2)C(=O)N2C(C(=O)O)=C(CSc3nnnn3C)CS[C@@H]21 [drawing 7 / drawing 6, 7β-(sydnon-3)acetamido-7α-methoxy-3-(1-methyl-1H-tetrazol-5-yl)thiomethyl-3-cephem-4-carboxylic acid] | 1.5 µg/mL (≈ 3.1 µM) |  | > 200 µg/mL |  |  | 0.8 µg/mL (≈ 1.65 µM) | 0.8 µg/mL (≈ 1.65 µM) |  |  | 
10 | CO[C@@]1(NC(=O)CS(=O)(=O)CCC#N)C(=O)N2C(C(=O)O)=C(CSc3nnnn3C)CS[C@@H]21 [NC(CH2)2 SO2 / drawing 6, 7β-cyanoethylsulfonyl-acetamido-7α-methoxy-3-(1-methyl-1H-tetrazol-5-yl)thiomethyl-3-cephem-4-carboxylic acid] | 3.1 µg/mL (≈ 5.99 µM) |  | 200 µg/mL (≈ 386 µM) |  |  | 0.8 µg/mL (≈ 1.55 µM) |  |  |  | 
11 | C#CCSCC(=O)N[C@]1(OC)C(=O)N2C(C(=O)O)=C(COC(C)=O)CS[C@@H]21 [drawing 14 / OCOCH3] | 12.5 µg/mL (≈ 30.2 µM) | 12.5 µg/mL (≈ 30.2 µM) | > 200 µg/mL | 6.2 µg/mL (≈ 15 µM) |  | 6.2 µg/mL (≈ 15 µM) | 1.5 µg/mL (≈ 3.62 µM) |  | 12.5 µg/mL (≈ 30.2 µM) | 12.5 µg/mL (≈ 30.2 µM)
12 | CO[C@@]1(NC(=O)CS(C)(=O)=O)C(=O)N2C(C(=O)O)=C(CSc3nnnn3C)CS[C@@H]21 [CH3 SO2 / drawing 6, 7β-methylsulfonylacetamido-7α-methoxy-3-(1-methyl-1H-tetrazol-5-yl)thiomethyl-3-cephem-4-carboxylic acid] | 1.5 µg/mL (≈ 3.13 µM) |  |  |  |  |  |  |  |  | 
13 | CO[C@@]1(NC(=O)CSc2ccon2)C(=O)N2C(C(=O)O)=C(CSc3nnnn3C)CS[C@@H]21 [drawing 12 / drawing 10, 7β-(3-isoxazolylthio)acetamido-7α-methoxy-3-(1-methyl-1H-tetrazol-5-yl)thiomethyl-3-cephem-4-carboxylic acid] | 3.1 µg/mL (≈ 6.21 µM) |  | > 400 µg/mL | 0.8 µg/mL (≈ 1.6 µM) |  | 0.8 µg/mL (≈ 1.6 µM) | 0.2 µg/mL (≈ 0.4 µM) |  |  | 
14 | CO[C@@]1(NC(=O)COc2ccon2)C(=O)N2C(C(=O)O)=C(CSc3nnnn3C)CS[C@@H]21 [drawing 11 / drawing 10, 7β-(3-isoxazolyloxy)acetamido-7α-methoxy-3-(1-methyl-1H-tetrazol-5-yl)thiomethyl-3-cephem-4-carboxylic acid] | 3.1 µg/mL (≈ 6.41 µM) |  |  |  |  |  |  |  |  | 
15 | CO[C@@]1(NC(=O)CSc2ccon2)C(=O)N2C(C(=O)O)=C(COC(C)=O)CS[C@@H]21 [drawing 13 / OCOCH3, 3-acetoxymethyl-7β-(3-isoxazolylthio)acetamido-7α-methoxy-3-cephem-4-carboxylic acid] | 6.2 µg/mL (≈ 14 µM) |  |  |  |  |  |  |  |  | 
16 | C#CCSCC(=O)N[C@]1(OC)C(=O)N2C(C(=O)O)=C(CSc3nnnn3C)CS[C@@H]21 [drawing 9 / drawing 10, 7β-propargylthioacetamido-7α-methoxy-3-(1-methyl-1H-tetrazol-5-yl)thiomethyl-3-cephem-4-carboxylic acid] | 3.1 µg/mL (≈ 6.59 µM) |  |  |  |  |  |  |  |  | 
17 | CCS(=O)(=O)CC(=O)N[C@]1(OC)C(=O)N2C(C(=O)O)=C(CSc3nnnn3C)CS[C@@H]21 [C2 H5 SO2 / drawing 6, 7β-ethylsulfonylacetamido-7α-methoxy-3-(1-methyl-1H-tetrazol-5-yl)thiomethyl-3-cephem-4-carboxylic acid] | 1.5 µg/mL (≈ 3.05 µM) |  |  |  |  | 0.8 µg/mL (≈ 1.62 µM) |  |  |  | 
